Source: patent publication US9949486B2, “Agrochemical composition comprising a N,N#-disubstituted (thio)urea for the improvement of crop productivity” (Crop Intellect Ltd., priority 2014, dated 2018)

Experiments:
Type in all cases: in vivo
Tomatoes = Tomatoes trial under glass, foliar treatment; settings: equivalent of 5 lt/ha
Experimental: (§1) Lettuce, beans, wheat and tomatoes were selected as plants to test the efficacy of the invention. Short term crops were grown in the greenhouse to ensure controlled condition and long term crops were grown outdoors in replicated trials. All relevant parameters to evaluate efficacy were tested including chlorophyll content, sugar levels, Mg and Fe tissue content, yield and quality characteristics. All trials were performed to good experimental practice (GEP) standards with adequate replication to conform to statistical comparisons. Environmental condition were monitored and kept the same between treatments for evaluation. John Innes soil based compost with low nutrient contents was used for the experiments and sieved to ensure uniformity. The applications were made to be applied at the equivalent of 5 lt/ha of end product in 180 lt of water. Treatments were administered foliarly just before runoff point. The magnesium and iron were in the form of Sulphate.
The trial on tomatoes under glass had shown a significant increase in yield and quality characteristics with the application of the present invention. […] The internode length reduced on average by 20% which is desirable for tomato plants grown under glass due to the infrastructure restrictions and efforts towards vegetative growth.

Lettuce = Lettuce greenhouse trial, foliar treatment
Experimental: as §1

Beans = Beans greenhouse trial, foliar treatment; settings: equivalent of 5 lt/ha
Experimental: as §1, with “Sulphate. […] Larger plants expressed as weight per plant was observed together with an increase in chlorophyll content, Mg and Fe content in the plant tissue and leaf diameter (which promotes resource capture). A reduction in internode length was also observed which is favourable for many greenhouse and outdoor vegetable crops.” for “Sulphate.”

[1] = lettuce, foliar, equivalent of 5 lt/ha

O=C(Nc1ccccc1)Nc1ccccc1 [DPU, 1,3-diphenylurea]
Yield (Tomatoes; average fruit fresh weight): 132 g
Chlorophyll (mg/cm^2) (Tomatoes): 0.031 mg/cm^2
Firmness (turgor MPa) (Tomatoes): 0.08 MPa
Internode length (Tomatoes): 8.1
Sugar level (%) (Tomatoes): 6.8%
Yield (Lettuce; lettuce fresh weight (yield st. error ±8), foliar, equivalent of 5 lt/ha of end product in 180 lt of water): 213 g
Fe content (mg/kg dw) (Lettuce; lettuce tissue, dry weight, foliar, equivalent of 5 lt/ha): 254 mg/kg dw
Mg content (mg/kg fw) (Lettuce; lettuce tissue, fresh weight, foliar, equivalent of 5 lt/ha): 480 mg/kg fw
Chlorophyll (mg/cm^2) (Lettuce; [1]): 0.029 mg/cm^2
Leaf number (Lettuce; [1]): 28
Sugar level (%) (Lettuce; [1]): 5.5%
Weight loss (%) (Lettuce; lettuce, weight loss after 7 days in ambient temperature (indication of shelf life)): 22%
Fe content (Beans; beans plant tissue): 86 mg/kg
Mg content (%) (Beans; beans plant tissue): 0.42%
Chlorophyll (mg/cm^2) (Beans; beans): 0.025 mg/cm^2
Internode length (Beans; beans): 7
Leaf diameter (cm) (Beans; beans): 7.8 cm
Yield (Beans; beans, fresh weight of above ground plant at 6 wks (st. error ±10)): 364 g
